Reference: patent US5552156A, “Liposomal and micellular stabilization of camptothecin drugs” (Ohio State University, priority 1995, dated 1996)

Experiments:
[1] = Fluorescence excitation and emission spectra of camptothecin drugs free in solution and bound to liposomes; type: physicochemical; conditions: for λMAX emission, DMPG: DMPG liposomes 0.29 M; for λMAX emission, DMPG / λMAX emission, PBS / λMAX emission, DMPC: pH 7.4, 37° C.; for λMAX emission, PBS: free in PBS; for Relative Fluorescence: in PBS, pH 7.4, at excitation and emission λMAX; for λMAX excitation: pH 7.4, 2 μM drug, PBS; for λMAX emission, DMPC: DMPC liposomes 0.29 M
Description: The camptothecin drugs are intrinsically intensely fluorescent. Fluorescence is associated with the extended conjugation of the quinoline ring system. The liposomes of Examples 1-7 were characterized for the presence of the camptothecin drugs, using excitation and emission spectrography, and fluorescence anisotropy.
(§1) Steady-state fluorescence measurements were obtained on a SLM Model 4800C. spectrofluorometer with a thermostated cuvette compartment. This instrument was interfaced with an IBM PS/2 model 55 SX computer. Excitation and emission spectra were recorded with an excitation resolution of 8 nm and an emission resolution of 4 nm. In all cases spectra were corrected for background fluorescence and scatter from unlabeled lipids or from solvents by subtraction of the spectrum of a blank. Steady-state fluorescence intensity measurements were made in the absence of polarizer. Steady-state anisotropy (a) measurements were determined with the instrument in the "T-format" for simultaneous measurement of two polarized intensities. The alignment of polarizers were checked routinely using a dilute suspension of 0.25 μm polystyrene microspheres from Polysciences, Inc, Warrington, Pa., in water; anisotropy values of >0.99 were obtained. The anisotropy was calculated from a=(Ivv -GlVH)/(Ivv +GIVH), where G-IVH /IHH and the subscripts refer to vertical and horizontal orientations of the excitation and emission polarizers, respectively.
(§2) Anisotropy measurements for camptothecin, camptothecin carboxylate sodium salt, and 10,11-methylenedioxycamptothecin were conducted using exciting light of 370 nm and 420 nm long wave pass filters on each emission channel in order to isolate the fluorescence signal from background scatter and signal. For topotecan a 400 nm excitation wavelength and a 500 nm emission filter were used and for 9-aminocamptothecin a 375 nm excitation and a wavelength 420 nm emission filter were used. For AMC and CMC, a 370 nm excitation wavelength and a 400 nm emission filter were used. For 10-hydroxycamptothecin 375 nm excitation wavelength 500 nm emission filter was used. Emission filters were obtained from Oriel Corp. Stamford, Conn. The combination of exciting light and emission filters allows one to adequately separate the fluorescence from the background signal. The contribution of background fluorescence, together with scattered light, was typically less than 1% of the total intensity. Since the lactone ring of the camptothecin drug undergoes hydrolysis in aqueous medium, all measurements were completed within the shortest possible time, less than 1 minute after mixing the drug stock solution with PBS or the liposomes. In each case, analysis was initiated immediately after mixing the drug stock solution with PBS or with the liposomes. All measurements were performed at 37° C. unless otherwise noted.
The relative fluorescence intensity of 1×10^-6 M of camptothecin free in PBS buffer at 37° C. is shown. The emission spectra of the camptothecin was recorded using exciting light of 370 nm.
An exciting light of 390 nm was used to record the emission spectra of topotecan. A decrease in the emission intensity is observed for topotecan associated with the DMPG liposome.
All spectra were recorded using camptothecin drug concentrations of 2
μM. The DMPC and DMPG concentrations were 0.29 M. Experiments were
conducted in PBS buffer at 37° C.
Also found in Table II is a relative index of the emission intensity levels from these camptothecin drugs in PBS at their respective excitation and emission λMAX.

[2] = Steady-state fluorescence anisotropy in solvents and liposomes; type: physicochemical; conditions: for steady-state anisotropy (a), DMPC: DMPC liposomes, 1/a vs. 1/[lipid] plot; for steady-state anisotropy (a), DMPC / steady-state anisotropy (a), DMPG / steady-state anisotropy (a), PBS / steady-state anisotropy (a), glycerol / steady-state anisotropy (a), octanol / steady-state anisotropy (a), DSPC: 37° C.; for steady-state anisotropy (a), DMPG: DMPG liposomes; for steady-state anisotropy (a), PBS / steady-state anisotropy (a), glycerol / steady-state anisotropy (a), octanol: 1 μM drug; for limiting fluorescence anisotropy a0: extrapolated to -25° C.; for limiting fluorescence anisotropy a0 / steady-state anisotropy (a), glycerol: glycerol; for steady-state anisotropy (a), DSPC: DSPC liposomes
Description: as §1, §2
While the spectral changes provide qualitative evidence that the camptothecin drugs bind the liposome membranes, fluorescence anisotropy titration, offers the most sensitive means for quantitatively assessing the extent of the binding. The fluorescence anisotropy titration was performed according to the method of Burke and Tritton, Biochemistry 24: 1768-1776 (1985).
A steady-state fluorescence anisotropy (a) measurement is related to the rotational rate of the fluorescent molecule through the Perrin Equation: […]
where a0 is the limiting fluorescence anisotropy value, that is, the anisotropy value in the absence of depolarizing rotations, T is the excited-state lifetime, and .phi. is the rotational correlative time of the fluorophore. According to Equation 1, changes in either the T or .phi. values of a fluorescent compound can modulate its steady-state anisotropy.
The limiting fluorescence anisotropy (a0) values were also measured. The maximum values of (a) were obtained by dissolving the camptothecin drugs in the viscous solvent glycerol and cooling the samples to low temperatures. Steady-stated anisotropy (a) values were determined for samples containing 1 μM drug at 37° C.
Where the solvent viscosity is high and temperature is low, depolarizing rotations are at a minimum. By extrapolating these (a) values to -25° C., the limiting anisotropy values (a0) for the camptothecin drugs, were determined. […]

CCC1(O)C(=O)OCc2c1cc1n(c2=O)Cc2cc3c(Cl)c4c(cc3nc2-1)OCO4 (stereo not drawn) [9-chloro-10,11-methylenedioxycamptothecin]
λMAX emission, DMPG [1]: 417 nm
λMAX emission, PBS [1]: 410 nm
Relative Fluorescence [1]: 1
λMAX excitation ([1]; 37° C.): 394 nm
steady-state anisotropy (a), DMPC [2]: 0.202
steady-state anisotropy (a), DMPG [2]: 0.207
steady-state anisotropy (a), PBS [2]: 0.025
limiting fluorescence anisotropy a0 [2]: 0.367
steady-state anisotropy (a), glycerol [2]: 0.363
steady-state anisotropy (a), octanol [2]: 0.098

CCC1(O)C(=O)OCc2c1cc1n(c2=O)Cc2cc3cc4c(cc3nc2-1)OCO4 (stereo not drawn) [10,11-methylenedioxycamptothecin]
λMAX emission, DMPC [1]: 408 nm
λMAX emission, DMPG [1]: 408 nm
λMAX emission, PBS [1]: 410 nm
Relative Fluorescence [1]: 1
λMAX excitation ([1]; 37° C.): 395 nm
steady-state anisotropy (a), DMPC [2]: 0.168
steady-state anisotropy (a), DMPG [2]: 0.206
steady-state anisotropy (a), PBS [2]: 0.021
limiting fluorescence anisotropy a0 [2]: 0.374
steady-state anisotropy (a), glycerol [2]: 0.357
steady-state anisotropy (a), octanol [2]: 0.089

CCC1(O)C(=O)OCc2c1cc1n(c2=O)Cc2cc3cc(O)ccc3nc2-1 (stereo not drawn) [10-hydroxycamptothecin]
λMAX emission, DMPC [1]: 558 nm
λMAX emission, DMPG [1]: 550 nm
λMAX emission, PBS [1]: 561 nm
Relative Fluorescence [1]: 0.5
λMAX excitation ([1]; 37° C.): 392 nm
steady-state anisotropy (a), DMPC [2]: 0.191
steady-state anisotropy (a), DMPG [2]: 0.201
steady-state anisotropy (a), PBS [2]: 0.021
limiting fluorescence anisotropy a0 [2]: 0.372
steady-state anisotropy (a), glycerol [2]: 0.331
steady-state anisotropy (a), octanol [2]: 0.127

CC[C@@]1(O)C(=O)OCc2c1cc1n(c2=O)Cc2cc3ccccc3nc2-1 [camptothecin]
λMAX emission, DMPC [1]: 433 nm
spectral shift on association with DMPC liposomes ([1]; DMPC, relative to free drug): about 5 nm
λMAX emission, DMPG [1]: 422 nm
λMAX emission, PBS [1]: 438 nm
Relative Fluorescence [1]: 1
λMAX excitation ([1]; 37° C.): 366 nm
blue shift of emission λmax on binding DMPG liposomes ([1]; relative to free camptothecin, 1×10^-6 M, 37° C.): about 16 nm
steady-state anisotropy (a), DMPC [2]: 0.127
steady-state anisotropy (a), DMPG [2]: 0.122
steady-state anisotropy (a), DSPC [2]: 0.087
steady-state anisotropy (a), PBS [2]: 0.007
enhancement in steady-state anisotropy (a) value ([2]; bound to DMPG liposomes): 17 -fold
limiting fluorescence anisotropy a0 [2]: 0.383
steady-state anisotropy (a), glycerol [2]: 0.334
steady-state anisotropy (a), octanol [2]: 0.051

CC[C@@]1(O)C(=O)OCc2c1cc1n(c2=O)Cc2cc3c(CN(C)C)c(O)ccc3nc2-1 [topotecan]
shifting in the emission spectrum with DMPG liposomes ([1]; 1 μM, DMPG liposomes): Only a slight shifting in the emission spectrum
λMAX emission, DMPC [1]: 538 nm
λMAX emission, DMPG [1]: 533 nm
λMAX emission, PBS [1]: 537 nm
Relative Fluorescence [1]: 1
λMAX excitation ([1]; 37° C.): 410 nm
steady-state anisotropy (a), DMPC [2]: 0.125
steady-state anisotropy (a), DMPG [2]: 0.170
steady-state anisotropy (a), DSPC [2]: 0.059
steady-state anisotropy (a), PBS [2]: 0.008
limiting fluorescence anisotropy a0 [2]: 0.367
steady-state anisotropy (a), glycerol [2]: 0.320
steady-state anisotropy (a), octanol [2]: 0.071
